Experimental data published in patent publication US20240197680A1, “VORUCICLIB DOSING REGIMENS AND METHODS OF TREATMENT INCLUDING THE SAME” (MEI Pharma, Inc., priority 2021, published 2024).

Columns and labels:
[1] = PK of voruciclib, daily dosing continuously (Table 2); format: in vivo, human; details: mean; for Accumulation Ratio (AUC0-t): Day 15/Day 1
clinical = details: human, in vivo
Text: Voruciclib half-life is designated as t1/2 in the tables (expressed in hours). […] There is interpatient variability, explaining the outlier values.

[2] = Monotherapy Phase 1 studies in solid tumors: safety profile; format: in vivo, human; details: Phase 1 monotherapy
Gelling in aqueous media = format: physicochemical
Method: Voruciclib can form a gel when dissolved in various media, depending on the other chemicals present. […] In general, voruciclib was more prone to gel at suspension concentrations >5 mg/mL and solubilities >0.5 mg/mL.

[3] = system: HCT-116 CRC cell xenograft; details: SCID, mouse, in vivo, po, 100 mg/kg
Method: Animals were randomized into 2 groups when tumors reached 100 mm diameter. Group A assigned single dosing. […] Drug concentration was measured in tumor and plasma after last dose at the following time points: 0, 4, 8, 24, 48, 72 hrs. […] Concentration of voruciclib in plasma is in units of μg/ml and in μg/g for tumors.

Solid Tumors [4] = test: Monotherapy Phase 1 study in solid tumors, daily continuously schedule; format: in vivo, human
Solid Tumors [5] = test: Monotherapy Phase 1 study in solid tumors, 2 weeks on/1 week off schedule; format: in vivo, human; details: 29 pts
[6] = PK of voruciclib, 2 weeks of daily dosing followed by 1 week without dosing in a 21-day cycle (Table 1); format: in vivo, human; details: mean
[7] = system: Venetoclax Sensitive and Resistant Cell Lines; test: Synergy with venetoclax in cell lines; format: cell-based; details: Ven Sensitive and Ven Resistant cell lines
Text: FIG. 4A: Ven Sensitive; FIG. 4B: Ven Resistant.

c-MYC expression = test: Gene biomarkers in Phase 1 daily dosing study: c-MYC expression in solid tumors; format: in vivo, human
[8] = system: Relapsed/Refractory B-cell malignancies; Relapsed/Refractory AML; format: in vivo, human
Method: Study population: Relapsed/Refractory B-cell malignancies; Relapsed/Refractory AML; Dose escalation with standard 3+3 design.
Endpoints: Safety and tolerability, Pharmacokinetics, Biologic correlative studies (BH3 profiling, MCL-1 expression, molecular mutations analysis), Response rates.
Voruciclib single agent dose escalation: 50 mg>100 mg>150 mg>200 mg.
Differentiation syndrome seen in 5 pts (50%) (Increased WBC without increased in blasts, bone pain, pulmonary symptoms; Response to corticosteroids).

CN1CC[C@@H](c2c(O)cc(O)c3c(=O)cc(-c4ccc(C(F)(F)F)cc4Cl)oc23)[C@@H]1CO [Voruciclib, (+)-trans-2-(2-chloro-4-trifluoromethylphenyl)-5,7-dihydroxy-8-(2-hydroxymethyl-1-methylpyrrolidin-3-yl)-chromen-4-one]
t½ ([1]; Day 1, 75 mg): 21.776 h | AUC0-∞ ([1]; Day 1, 150 mg): 15592.890 ng·h/mL | AUC0-∞ ([1]; Day 1, 250 mg): 16383.699 ng·h/mL | Cmax ([1]; Day 1, 250 mg): 471.955 ng/mL | AUC0-24 ([1]; Day 1, 350 mg): 10388.095 ng·h/mL | CL/F ([1]; Day 1, 350 mg): 4.224 L/h | AUC0-24 ([1]; Day 1, 500 mg): 16370.472 ng·h/mL | AUC0-t ([1]; Day 1, 500 mg): 16370.472 ng·h/mL | CL/F ([1]; Day 1, 500 mg): 2.107 L/h | Accumulation Ratio (AUC0-t) ([1]; 75 mg): 2.634 | Accumulation Ratio (AUC0-t) ([1]; 150 mg): 3.637 | Accumulation Ratio (AUC0-t) ([1]; 250 mg): 3.090 | Accumulation Ratio (AUC0-t) ([1]; 350 mg): 2.767 | Accumulation Ratio (AUC0-t) ([1]; 500 mg): 2.577 | AUC0-∞ ([1]; Day 15, 75 mg): 27200.362 ng·h/mL | AUC0-24 ([1]; Day 15, 150 mg): 16642.661 ng·h/mL | AUC0-t ([1]; Day 15, 150 mg): 16642.661 ng·h/mL | AUC0-∞ ([1]; Day 15, 150 mg): 164073.250 ng·h/mL | t½ ([1]; Day 15, 150 mg): 131.733 h | Cmax ([1]; Day 15, 250 mg): 1047.832 ng/mL | t½ ([1]; Day 15, 250 mg): 38.750 h | AUC0-∞ ([1]; Day 15, 350 mg): 164113.625 ng·h/mL | CL/F ([1]; Day 15, 350 mg): 1.607 L/h | AUC0-24 ([1]; Day 15, 500 mg): 40465.337 ng·h/mL | AUC0-t ([1]; Day 15, 500 mg): 40465.337 ng·h/mL | AUC0-∞ ([1]; Day 15, 500 mg): 108301.704 ng·h/mL | CL/F ([1]; Day 15, 500 mg): 1.031 L/h | additional time to clear from the tissue after it clears the plasma (clinical): 3 days | half-life (clinical): 120 to 240 h | most common AEs [2]: involved GI tract | myelosuppression [2]: no evidence of myelosuppression | solubility at which more prone to gel (Gelling in aqueous media): > 500 µg/mL | suspension concentration at which more prone to gel (Gelling in aqueous media): > 5 mg/mL | Gelling (Gelling in aqueous media; pH 1.6 (FaSSGF)): Gelling was observed | Gelling (Gelling in aqueous media; pH 6.5 (FaSSIF)): Gelling was observed | level in tumor at 8 hours compared to 24 hours post dosing [3]: > 5 fold | duration of SD, median (Solid Tumors [4]): 15 weeks | PR (number of patients) (Solid Tumors [5]): 1 | t½ ([6]; Day 1, 600 mg): 32.544 h | AUC0-∞ ([6]; Day 13, 300 mg): 59331.780 ng·h/mL | t½ ([6]; Day 13, 300 mg): 16.166 h | t½ ([6]; Day 13, 850 mg): 22.380 h | synergy with Venetoclax [7]: Synergizes | patients with decreased c-MYC expression / patients tested (c-MYC expression): 17/25 | Differentiation syndrome (number of pts) ([8]; AML patients): 5 | Differentiation syndrome (share of pts) ([8]; AML patients): 50% | Cmax and AUC dose dependence ([8]; human, in vivo): Dose proportional | volume of distribution ([8]; human, in vivo): High | GI toxicity or neutropenia ([8]; in vivo): No GI toxicity or neutropenia
